8 compounds from patent US10479780B2, “Aminopyrazole derivatives” (Chugai Seiyaku Kabushiki Kaisha, priority 2015, dated 2019) can be followed below.

Common to all, as to format: biochemical
Assay [1] deals with T1, human Yes1 enzyme (Homo sapiens, UniProt P07947).
T1 construct: made in house
The assay can be described thus: Yes1 enzyme inhibitory activity (time-resolved fluorometry, biotinylated peptide phosphorylation). As to conditions: read-out: YES_IC50. The method, boiled down:
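Inhibition was expressed against a compound-free control to give IC50, using TR-FRET read-out (Eu-cryptate anti-pTyr antibody, streptavidin-XL665).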

The target in assay [2] is T2, human Src enzyme (Homo sapiens, UniProt P12931).
T2 construct: purchased Carna Biosciences, Inc. 08-173
T2 sequence (P12931 whole entry): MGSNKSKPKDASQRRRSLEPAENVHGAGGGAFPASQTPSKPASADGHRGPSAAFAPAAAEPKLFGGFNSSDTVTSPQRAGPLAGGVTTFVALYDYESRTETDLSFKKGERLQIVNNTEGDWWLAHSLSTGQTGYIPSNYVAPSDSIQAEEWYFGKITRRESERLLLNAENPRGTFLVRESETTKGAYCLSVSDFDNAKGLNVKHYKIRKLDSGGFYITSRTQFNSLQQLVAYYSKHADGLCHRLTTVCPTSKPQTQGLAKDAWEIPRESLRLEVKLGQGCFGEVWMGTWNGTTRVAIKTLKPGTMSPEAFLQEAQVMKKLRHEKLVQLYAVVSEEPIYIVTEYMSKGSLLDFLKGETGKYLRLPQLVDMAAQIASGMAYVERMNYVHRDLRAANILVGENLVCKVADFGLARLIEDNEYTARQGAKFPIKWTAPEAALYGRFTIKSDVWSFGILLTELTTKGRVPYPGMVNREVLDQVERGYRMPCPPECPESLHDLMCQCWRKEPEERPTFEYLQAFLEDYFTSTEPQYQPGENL
Put plainly: Src enzyme inhibitory activity (time-resolved fluorometry, biotinylated peptide phosphorylation). Particulars: read-out: SRC_IC50. The method, boiled down: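 Compounds were tested for blocking tyrosine phosphorylation of a biotinylated peptide substrate by recombinant human Src. Phosphorylated product was quantified by time-resolved fluorometry using europium cryptate and XL665 conjugates, and IC50 was calculated against the compound-free control.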

Assay [3] concerns the target T3, human Lck enzyme (Homo sapiens, UniProt P06239).
T3 construct: purchased Carna Biosciences, Inc. 08-170
Put plainly: Lck enzyme inhibitory activity (time-resolved fluorometry, biotinylated peptide phosphorylation). As to conditions: read-out: LCK_IC50. The method, boiled down: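 Readout pairs a europium cryptate-labelled anti-phosphotyrosine antibody with XL665-streptavidin, measured by time-resolved fluorescence. IC50 derived from percent inhibition against untreated controls.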

T1 sequence (P07947 whole entry): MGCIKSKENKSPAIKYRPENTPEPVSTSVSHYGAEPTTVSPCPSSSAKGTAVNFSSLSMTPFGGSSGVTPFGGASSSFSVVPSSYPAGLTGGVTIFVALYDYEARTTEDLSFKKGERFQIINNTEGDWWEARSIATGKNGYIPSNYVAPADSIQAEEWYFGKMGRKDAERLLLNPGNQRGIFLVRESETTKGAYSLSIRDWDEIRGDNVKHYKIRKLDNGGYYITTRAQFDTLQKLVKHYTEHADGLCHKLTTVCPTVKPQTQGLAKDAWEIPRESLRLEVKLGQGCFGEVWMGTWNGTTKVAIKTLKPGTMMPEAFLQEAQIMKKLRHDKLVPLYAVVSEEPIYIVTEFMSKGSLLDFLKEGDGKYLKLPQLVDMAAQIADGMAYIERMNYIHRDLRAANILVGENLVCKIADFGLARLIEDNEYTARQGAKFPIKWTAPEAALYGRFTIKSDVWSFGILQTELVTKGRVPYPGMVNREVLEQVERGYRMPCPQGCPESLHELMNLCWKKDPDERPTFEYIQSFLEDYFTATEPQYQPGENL
T3 sequence (P06239 whole entry): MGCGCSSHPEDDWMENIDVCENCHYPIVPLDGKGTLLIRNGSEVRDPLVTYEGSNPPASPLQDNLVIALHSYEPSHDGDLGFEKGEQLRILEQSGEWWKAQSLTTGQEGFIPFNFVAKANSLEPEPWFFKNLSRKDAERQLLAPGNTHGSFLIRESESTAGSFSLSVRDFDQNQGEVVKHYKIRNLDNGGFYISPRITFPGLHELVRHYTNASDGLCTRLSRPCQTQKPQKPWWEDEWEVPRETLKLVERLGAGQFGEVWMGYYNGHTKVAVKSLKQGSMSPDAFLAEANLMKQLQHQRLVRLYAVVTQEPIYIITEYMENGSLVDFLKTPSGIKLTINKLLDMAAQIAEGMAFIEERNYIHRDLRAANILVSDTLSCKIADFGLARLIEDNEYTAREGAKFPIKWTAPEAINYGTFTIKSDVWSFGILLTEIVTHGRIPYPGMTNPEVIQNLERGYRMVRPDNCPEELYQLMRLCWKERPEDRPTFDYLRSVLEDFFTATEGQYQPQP

Take `Cc1cc2cc(C(=O)c3cnn(-c4cnc(Oc5c(F)cccc5F)cc4C)c3N)[nH]c2cc1N1C(=O)NC2(CCNC2)C1=O` (stereo not drawn) [Example 5-1-358, 3-[2-[5-amino-1-[6-(2,6-difluorophenoxy)-4-methylpyridin-3-yl]pyrazole-4-carbonyl]-5-methyl-1H-indol-6-yl]-1,3,7-triazaspiro[4.4] nonane-2,4-dione]: the IC50 in assay [1] was found to be 1.8 nM; in assay [2], 21 nM; in assay [3] it was 4.2 nM.
The corresponding values for `Cc1cc(Oc2ccccc2F)ncc1-n1ncc(C(=O)c2cc3cc(SC(F)F)c(N4C(=O)NC(C)(C)C4=O)cc3[nH]2)c1N` [Example 5-1-359, 3-[2-[5-amino-1-[6-(2-fluorophenoxy)-4-methylpyridin-3-yl]pyrazole-4-carbonyl]-5-(difluoromethylsulfanyl)-1H-indol-6-yl]-5,5-dimethylimidazolidine-2,4-dione] are 6 nM, 130 nM and 25 nM.
The like results for `Cc1cc2cc(C(=O)c3cnn(-c4cnc(Oc5c(F)cccc5F)cc4C)c3N)[nH]c2cc1N1C(=O)NC2(CCN(C3COC3)CC2)C1=O` [Example 5-1-360, 3-[2-[5-amino-1-[6-(2,6-difluorophenoxy)-4-methylpyridin-3-yl]pyrazole-4-carbonyl]-5-methyl-1H-indol-6-yl]-8-(oxetan-3-yl)-1,3,8-triazaspiro[4.5]decane-2,4-dione] were, in that order, 2.2 nM, 19 nM and 6.3 nM.
Consider `Cc1cc2cc(C(=O)c3cnn(-c4cnc(Oc5c(F)cccc5F)cc4C)c3N)[nH]c2cc1N1C(=O)NC2(CCN(Cc3ccccc3)CC2)C1=O` [Example 5-1-361, 3-[2-[5-amino-1-[6-(2,6-difluorophenoxy)-4-methylpyridin-3-yl]pyrazole-4-carbonyl]-5-methyl-1H-indol-6-yl]-8-benzyl-1,3,8-triazaspiro[4.5]decane-2,4-dione], for which the IC50 is 9.2 nM in assay [1], 170 nM in assay [2] and 26 nM in assay [3].
The corresponding values for `Cc1cc2cc(C(=O)c3cnn(-c4cnc(Oc5c(F)cccc5F)cc4C)c3N)[nH]c2cc1N1C(=O)NC2(CCN(C3COC3)C2)C1=O` (stereo not drawn) [Example 5-1-362, 3-[2-[5-amino-1-[6-(2,6-difluorophenoxy)-4-methylpyridin-3-yl]pyrazole-4-carbonyl]-5-methyl-1H-indol-6-yl]-7-(oxetan-3-yl)-1,3,7-triazaspiro[4.4]nonane-2,4-dione] are 2 nM, 29 nM and 6.5 nM.
The like results for `Cc1cc2cc(C(=O)c3cnn(-c4cnc(Oc5c(F)cccc5F)cc4C)c3N)[nH]c2cc1N1C(=O)NC2(CCN(Cc3ccccc3)C2)C1=O` (stereo not drawn) [Example 5-1-363, 3-[2-[5-amino-1-[6-(2,6-difluorophenoxy)-4-methylpyridin-3-yl]pyrazole-4-carbonyl]-5-methyl-1H-indol-6-yl]-7-benzyl-1,3,7-triazaspiro[4.4]nonane-2,4-dione] were, in that order, 11 nM, 260 nM and 31 nM.
The corresponding values for `Cc1cc2cc(C(=O)c3cnn(-c4ccc(Oc5ccccc5F)cc4C)c3N)[nH]c2cc1N1C(=O)NC2(CCNCC2)C1=O` [Example 5-1-364, 3-(2-(5-amino-1-(4-(2-fluorophenoxy)-2-methylphenyl)-1H-pyrazole-4-carbonyl)-5-methyl-1H-indol-6-yl)-1,3,8-triazaspiro[4.5]decane-2,4-dione] are 1.3 nM, 18 nM and 5.4 nM.
On to `Cc1cc2cc(C(=O)c3cnn(-c4ccc(Oc5ccccc5F)cc4C)c3N)[nH]c2cc1N1C(=O)NC2(CCNC2)C1=O` (stereo not drawn) [Example 5-1-365, 3-[2-[5-amino-1-[4-(2-fluorophenoxy)-2-methylphenyl]pyrazole-4-carbonyl]-5-methyl-1H-indol-6-yl]-1,3,7-triazaspiro[4.4]nonane-2,4-dione], for which the IC50 in assay [1] was found to be 1.5 nM; in assay [2], 18 nM; in assay [3], 5.7 nM.
